pIC50: −log10 of the molar value. Like-named read-outs stand apart in the source and are kept apart here.
What was measured:
ABCB1 [1] = target: T1, ABCB1 (Homo sapiens, UniProt P08183); test: HOE (Hoechst 33342) accumulation in MDCKII-ABCB1 cells; format: cell-based; design: expressed in transfected cells; host or cells: MDCKII (canine kidney) cells transduced with human ABCB1, from Prof; Piet Borst and Dr. Alfred Schinkel (The Netherlands Cancer Institute); conditions: human, probe Hoechst 33342 (HOE), 8 µM, CDKi applied at their respective IC50 concentrations, % as strongly as LY, read-out: Inhibition of HOE efflux relative to LY
Protocol: (§1) To investigate the inhibitory activity of CDKi on ABCB1, the intracellular accumulation of HOE, a fluorescent ABCB1 substrate, was examined in both MDCKII-ABCB1 and MDCKII parent cell lines in the presence and absence of the tested compounds. The reduction in fluorescence intensity in ABCB1-transduced cells indicates the efflux activity of the ABCB1 transporter, its inhibition increases HOE accumulation and thus the intracellular fluorescence.
(§2) The assay was conducted as previously described and optimized for application in ABCB1-expressing cells. Briefly, MDCKII-ABCB1 and MDCKII parent cells were seeded at 5×10^4 cells per well on a 96-well culture plate and used for accumulation experiments after 24 h cultivation. The medium was removed and cells were washed twice with prewarmed phosphate buffered saline (PBS) at pH 7.4.

ABCG2 = system: ABCG2; design: method as in PMID 22173067, PMID 24116053; conditions: in vitro and in situ; cited from earlier work
ABCB1 transporter [2] = target: T2, ABCB1 transporter (Homo sapiens, UniProt P08183); test: DNR accumulation in MDCKII-ABCB1 cells (flow cytometry), normalized to parental MDCKII; format: cell-based; conditions: 20 µM CDKi, 2 µM DNR
T2 construct: expressed in transfected cells; host or cells: MDCKII (canine kidney) cells transduced with human ABCB1, from Prof; Piet Borst and Dr. Alfred Schinkel (The Netherlands Cancer Institute)
Protocol: Briefly, MDCKII-ABCB1 and MDCKII parent cells were seeded at 1.5×10^5 cells per well on a 12-well plate 24 h before the experiment. The medium was removed and the cells were washed with prewarmed PBS. The cells were then preincubated in Opti-MEM, with or without CDKi or LY at 37°C in 5% CO2 for 30 min. […] Accumulation was stopped by cooling the samples on ice, removing the medium and washing twice with ice-cold PBS. The cells were then detached from the plates with 10× trypsin-EDTA, resuspended in PBS with 2% FBS and transferred to Eppendorf tubes, which were placed on ice until analysis. […] The median fluorescence (MF) intensity of 10,000 measured cells was used to compare the fluorescence resulting from each of the treatments. […] The MF intensity of untreated cells was subtracted from fluorescence values obtained for all the measured samples.
To quantify the inhibitory effect of each tested compound on the ABCB1 transporter in the MDCKII-ABCB1 cell line, the ratio between the MF intensity with or without inhibitor was calculated and normalized to the effect in the parental MDCKII cell line according to the following equation [30]: [drawing 1]

MDCKII parent cells = test: XTT cytotoxicity, CDKi + DNR combination (Chou-Talalay); format: cell-based; conditions: 72 h; for Fa above which combination with DNR is synergistic: constant ratio
Protocol: (§3) 1×10^4 MDCKII-ABCB1, 1×10^4 MDCKII parent, 2×10^4 HCT-8, or 2×10^4 HepG2 cells were grown in 96-well culture plates and incubated for 24 h. Individual CDKi diluted with growth medium were added to the exponentially growing cells and the resulting mixtures were incubated for 72 h at 37°C, 5% CO2. Cytotoxicity was then assessed using the XTT assay as follows: cells were incubated with 0.167 mg/mL XTT and 4 µM PMS in Opti-MEM for 2 h. The absorbance of the soluble formazan released was measured at 470 nm on a microplate reader (Tecan, Männedorf, Switzerland).
(§4) The combination index (CI) method of Chou-Talalay, based on the median-effect equation, was used to calculate combined drug effects. This approach offers quantitative definitions for additive, synergistic and antagonistic effects (CI values of 0.9–1.1, <0.9, and >1.1, respectively). Combination experiments were performed in a constant-ratio experimental design as recommended for the most efficient data analysis, and the generated data were used to quantify dose-reduction indices (DRI) for pairs of the tested drugs. DRI represents the fold-change of a focal effect when individual agents are used simultaneously relative to their separate effects, and their activity is synergistic if DRI > 1. […] The data acquired from these drug combination experiments were analyzed using CompuSyn ver. 3.0.1 software (ComboSyn Inc., Paramus, NJ, USA).

MDCKII-ABCB1 cells = test: as above; format: cell-based
Protocol: as §3, §4

ABCB1 [3] = target: T1, ABCB1; test: ABCB1-ATPase inhibition assay (verapamil-stimulated), Sf9 membranes; format: biochemical; design: purchased Solvo Biotechnology (Szeged, Hungary); host or cells: Sf9 insect cell membranes; conditions: 140 nM to 300 µM
Protocol: (§5) The drug efflux function of ABCB1 is linked to hydrolysis of ATP by ATPase, which is stimulated in the presence of ABCB1 substrates. In the activation assay, transported substrates can stimulate baseline vanadate-sensitive ATPase activity, whereas in the inhibition assay, which is carried out in the presence of a known activator of the transporter, inhibitors may reduce the maximal vanadate-sensitive ATPase activity. ATPase activity was measured by assessing the amount of phosphate liberated from ATP by the ABCB1 transporter using the […] ATPase kit for ABCB1 according to the manufacturer’s instructions. For this purpose, Sf9 cell membranes (4 µg protein per well) were mixed with each of the test compounds (singly) in solutions with concentrations ranging from 140 nM to 300 µM, then incubated at 37°C for 10 min in the presence or absence of 1.2 mM sodium orthovanadate. The reaction was started by adding 10 mM ATP solution (magnesium salt) to the reaction mixture, stopped 10 min later, and the absorbance at 590 nm was measured after a further 30 min incubation (GeniosPlus apparatus; Tecan, Männedorf, Switzerland). The ATPase activity in each sample was determined as the difference in liberated amounts of phosphate measured in the presence and absence of 1.2 mM sodium orthovanadate. Phosphate standards were prepared in each plate and verapamil served as a positive control for ABCB1 stimulation. The results are expressed as vanadate-sensitive ATPase activities.

ABCB1 transporter [4] = target: T2, ABCB1 transporter; test: HOE (Hoechst 33342) accumulation in MDCKII-ABCB1 cells; format: cell-based; conditions: 8 µM HOE, end-point fluorescence at 30 min, 50% of each compound's own maximum inhibitory activity, read-out: IC50, inhibition of ABCB1-mediated efflux of HOE
Protocol: as §1, §2

HepG2 cells = test: XTT cytotoxicity, CDKi + DNR combination (Chou-Talalay); format: cell-based, human; conditions: HepG2, 72 h; for Fa values for synergism of combination with DNR: constant ratio; for DRI at Fa 0.75, drug II (CDKi) / DRI at Fa 0.9, drug II (CDKi): CDKi combined with DNR at constant ratio
Protocol: as §3, §4

ABCB1 [5] = target: T1, ABCB1; test: ABCB1-ATPase activation assay (baseline), Sf9 membranes; format: biochemical; design: purchased Solvo Biotechnology (Szeged, Hungary); host or cells: Sf9 insect cell membranes; conditions: for Effect on baseline vanadate-sensitive ATPase activity of ABCB1: activation assay, 140 nM to 300 µM
Protocol: as §5

HCT-8 cells = test: XTT cytotoxicity, CDKi + DNR combination (Chou-Talalay); conditions: HCT-8, 72 h; for Fa at which combination with DNR shows synergistic cytotoxic effects: constant ratio; for DRI at Fa 0.5, drug II (CDKi) / DRI at Fa 0.75, drug II (CDKi) / DRI at Fa 0.9, drug II (CDKi): CDKi combined with DNR at constant ratio
Protocol: as §3, §4

[6] = CDKi combined with DNR at constant ratio
[7] = MDCKII-ABCB1, 72 h, CDKi combined with DNR at constant ratio

T1 sequence (P08183 whole entry): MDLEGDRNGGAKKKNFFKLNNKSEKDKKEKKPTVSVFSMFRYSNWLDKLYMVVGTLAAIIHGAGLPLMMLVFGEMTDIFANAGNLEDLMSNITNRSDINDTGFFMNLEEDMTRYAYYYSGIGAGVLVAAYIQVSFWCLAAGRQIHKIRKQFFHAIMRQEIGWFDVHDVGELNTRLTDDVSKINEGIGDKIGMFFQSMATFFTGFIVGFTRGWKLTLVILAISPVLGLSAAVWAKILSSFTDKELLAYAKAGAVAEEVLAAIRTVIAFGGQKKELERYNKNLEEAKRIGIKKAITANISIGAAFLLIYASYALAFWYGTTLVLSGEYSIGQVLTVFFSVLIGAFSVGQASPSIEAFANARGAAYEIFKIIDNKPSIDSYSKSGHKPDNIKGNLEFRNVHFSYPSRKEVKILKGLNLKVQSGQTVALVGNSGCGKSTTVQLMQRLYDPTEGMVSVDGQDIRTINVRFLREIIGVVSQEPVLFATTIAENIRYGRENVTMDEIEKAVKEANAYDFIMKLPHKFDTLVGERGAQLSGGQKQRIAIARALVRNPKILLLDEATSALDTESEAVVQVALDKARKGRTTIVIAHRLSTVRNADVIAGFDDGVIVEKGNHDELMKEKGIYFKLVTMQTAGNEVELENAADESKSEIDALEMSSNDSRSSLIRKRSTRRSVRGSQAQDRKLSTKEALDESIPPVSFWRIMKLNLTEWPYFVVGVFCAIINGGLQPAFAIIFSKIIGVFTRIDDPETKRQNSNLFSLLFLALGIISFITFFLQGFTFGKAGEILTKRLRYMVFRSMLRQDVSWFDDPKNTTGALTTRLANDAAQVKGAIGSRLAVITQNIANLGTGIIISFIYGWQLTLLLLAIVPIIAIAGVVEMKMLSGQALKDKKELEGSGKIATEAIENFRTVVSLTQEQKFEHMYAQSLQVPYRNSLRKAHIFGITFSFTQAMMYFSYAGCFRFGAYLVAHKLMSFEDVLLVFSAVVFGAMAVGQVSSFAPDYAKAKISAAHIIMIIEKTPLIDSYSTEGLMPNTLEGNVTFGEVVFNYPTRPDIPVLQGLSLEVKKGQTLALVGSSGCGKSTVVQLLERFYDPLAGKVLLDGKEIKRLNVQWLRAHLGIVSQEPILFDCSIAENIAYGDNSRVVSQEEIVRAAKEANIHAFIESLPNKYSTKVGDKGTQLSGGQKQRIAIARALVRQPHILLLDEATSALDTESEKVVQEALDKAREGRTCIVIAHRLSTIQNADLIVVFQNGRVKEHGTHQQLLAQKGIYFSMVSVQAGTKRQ
T2 sequence (P08183 whole entry): as above

Row | SMILES | inhibition at 30 min (ABCB1 [1]) [%] | ABCB1 inhibition (DNR efflux) (ABCB1 transporter [2]) | DRI at Fa 0.75, drug II (CDKi) (MDCKII parent cells; [6]) | DRI at Fa 0.9, drug II (CDKi) (MDCKII parent cells; [6]) | Fa above which combination with DNR is synergistic (MDCKII parent cells) | Effect on verapamil-stimulated vanadate-sensitive ATPase activity of ABCB1 (ABCB1 [3]) | pIC50 (ABCB1 transporter [4]) | Fa values for synergism of combination with DNR (HepG2 cells) | DRI at Fa 0.75, drug II (CDKi) (HepG2 cells) | DRI at Fa 0.9, drug II (CDKi) (HepG2 cells) | Effect on baseline vanadate-sensitive ATPase activity of ABCB1 (ABCB1 [5]) | Fa at which combination with DNR shows synergistic cytotoxic effects (HCT-8 cells) | DRI at Fa 0.5, drug II (CDKi) (HCT-8 cells) | DRI at Fa 0.75, drug II (CDKi) (HCT-8 cells) | DRI at Fa 0.9, drug II (CDKi) (HCT-8 cells) | also measured
1 | CC[C@H](CO)Nc1nc(NCc2ccccc2O)c2ncn(C(C)C)c2n1 [olomoucine II] | 48 | significant (P<0.05) ABCB1 inhibition | 2.63±0.05 | 2.75±0.02 | exceeded 0.4 | considerably and dose-dependently reduced | 5.19 | 0.75 | 2.08±0.03 | 2.38±0.04 | increased the baseline vanadate-sensitive ATPase activity | > 0.1 | 3.04±0.13 | 2.98±0.06 | 2.92±0.05 | ABCG2 inhibition (ABCG2): can inhibit ABCG2 in vitro and in situ; DRI at Fa 0.5, drug II (CDKi) (MDCKII parent cells; [6]): 2.51±0.08; Combination index (CI) category, combination with DNR (MDCKII-ABCB1 cells; MDCKII-ABCB1, 72 h, constant ratio): synergistic category of drug combination effects across almost the whole fraction of cells affected (Fa) range; DRI at Fa 0.5, drug II (CDKi) (MDCKII-ABCB1 cells; [7]): 2.83±0.27; DRI at Fa 0.75, drug II (CDKi) (MDCKII-ABCB1 cells; [7]): 2.84±0.19; DRI at Fa 0.9, drug II (CDKi) (MDCKII-ABCB1 cells; [7]): 2.86±0.10; ABCB1 substrate classification (ABCB1 [5]; from ATPase activity in Sf9 membranes overexpressing human ABCB1): ABCB1 substrate and inhibitor
2 | CC[C@H](CO)Nc1nc(NCc2ccccc2)c2ncn(C(C)C)c2n1 [roscovitine] | 57 | significant (P<0.05) ABCB1 inhibition | 2.29±0.05 | 2.37±0.06 | > 0.45 | considerably and dose-dependently reduced | 4.99 | 0.65 | 2.51±0.02 | 2.56±0.02 | increased the baseline vanadate-sensitive ATPase activity | > 0.3 | 2.49±0.02 | 2.29±0.03 | 2.11±0.06 | DRI at Fa 0.75, drug II (CDKi) (MDCKII-ABCB1 cells): 3.08±0.02; DRI at Fa 0.9, drug II (CDKi) (MDCKII-ABCB1 cells): 2.96±0.03
